{"source": "paper PMC7570662", "about": "“In Vivo Pharmacokinetic Analysis Utilizing Non-Targeted and Targeted Mass Spectrometry and In Vitro Assay against Transient Receptor Potential Channels of Maobushisaishinto and Its Constituent Asiasari Radix” (Molecules, 2020)", "assay": "Qualitative non-targeted LC-HRMS analysis of AR compounds in rat plasma after oral AR or MBST", "format": "in vivo", "experimental": "Extract powders of AR or MBST were suspended in distilled water and orally administered to rats having fasted for approximately 16 h. The dose of AR was set at 2 g/kg, and the MBST doses were set at 1 and 2 g/kg. 1 g/kg MBST contained 578 µg/kg, 147 µg/kg, 226 µg/kg, 426 µg/kg asarinin, sesamin, methyl kakuol, and amide A, respectively. The doses were chosen based on a previous pharmacological study of MBST using rats.\nAccording to previous pharmacokinetic studies of herbal medicines, many of the components were quickly absorbed into the bloodstream, thereby providing the rationale for a sampling time at 1 h. Blood was centrifuged at 1200× g at 4 °C for 30 min to obtain plasma; then, the sample was stored at −80 °C until LC-HRMS analysis. […]\nThe plasma samples were collected at 1 h after MBST administration in case of both the qualitative (non-targeted) analysis and the quantitative (targeted) analysis.\nThe plasma samples of AR- or MBST-treated rats collected at 1 h post-administration were pretreated by deproteinization using methanol before the LC-HRMS analysis as follows: 100 µL plasma sample was mixed with 500 µL methanol, and the resultant solution was vortexed for 2 min. The mixture was centrifuged at 7000× g at 4 °C for 5 min. The supernatant was dried using a centrifugal evaporator, and the dried residue was dissolved in 100 μL of the initial LC mobile phase which is composed of 0.1 vol% formic acid in water/acetonitrile (99.9/0.1, v/v) and recentrifuged at 7000× g at 4 °C for 5 min. Finally, a 5 μL aliquot of the supernatant was injected into the LC-HRMS system comprised of an Acquity Ultra-Performance Liquid Chromatography System (Waters, Milford, MA, USA) and a Xevo G2-XS quadrupole time-of-flight MS (Waters) and was chromatographically separated using an ACQUITY UPLC HSS T3 column (2.1 × 150 mm I.D., 1.8-μm particle size; Waters) with an ACQUITY UPLC HSS T3 VanGuard Pre-column (2.1 mm × 5 mm I.D., 1.8-μm particle size; Waters) at 40 °C. The mobile phase consisted of solution A (0.1% formic acid, v/v) and solution B (acetonitrile) with a gradient of solution B (0.1%, 0 min; 99%, 24 min; v/v) at a flow rate of 0.4 mL/min. The analysis of the mass spectrometer fit with an electrospray ionization probe with sensitivity mode was performed for both the positive and negative ion mode. The resolution of the mass spectrometer was set at >20,000. For MS^E experiments, two acquisition functions with different collision energies were created: a low-energy function with a collision energy of 6 eV and a high-energy function with collision energy ranging from 15 to 40 eV.", "data": [{"substance": "(2E,4E,9E)-8,11-Dihydroxy-N-isobutyl-2,4,9-dodecatrienamide, (2E,4E,8Z)-10,11-Dihydroxy-N-isobutyl-2,4,8-dodecatrienamide", "values": [{"measurement": "AR-Treated Rat Plasma (detection of compound)", "setting": "rat plasma 1 h after oral 2 g/kg AR, n = 1, LC-HRMS", "value": "+ (The number of plus signs represents the sample number in which the compound was detected among AR-treated rat plasma (n = 1) and MBST-treated rat plasma (n = 3))"}, {"measurement": "MBST-Treated Rat Plasma (detection of compound)", "setting": "rat plasma 1 h after oral 2 g/kg MBST, n = 3, LC-HRMS", "value": "+ + + (The number of plus signs represents the sample number in which the compound was detected among AR-treated rat plasma (n = 1) and MBST-treated rat plasma (n = 3))"}]}]}
